Target: FGFR1 kinase domain (Homo sapiens, UniProt P11362)
Experiment: ALPHAScreen assay of inhibition of phosphorylation by FGFR1 kinase
Assay type: biochemical

Chain of FGFR1 kinase domain (P11362 478-767 limits assumed): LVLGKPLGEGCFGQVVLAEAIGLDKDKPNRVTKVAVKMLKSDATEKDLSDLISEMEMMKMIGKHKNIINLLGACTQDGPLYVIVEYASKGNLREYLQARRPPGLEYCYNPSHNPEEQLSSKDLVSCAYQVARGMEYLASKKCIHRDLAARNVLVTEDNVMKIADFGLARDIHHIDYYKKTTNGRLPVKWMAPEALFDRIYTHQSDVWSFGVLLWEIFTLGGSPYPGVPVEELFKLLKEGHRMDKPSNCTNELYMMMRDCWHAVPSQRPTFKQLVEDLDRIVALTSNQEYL

COc1cc(OC)cc(-c2ccc3c(c2)sc2nc(CCC(=O)O)[nH]c(=O)c23)c1 [compound 7, 3-(7-(3,5-dimethoxyphenyl)-4-oxo-3,4-dihydrobenzo[4,5]thieno[2,3-d]pyrimidin-2-yl)propanoic acid]
IC50: 21 µM

COc1cc(OC)cc(-c2ccc3c(c2)sc2nc(-c4ccc(OCC(=O)O)c(OC)c4)[nH]c(=O)c23)c1 [compound 6, 2-(4-(7-(3,5-dimethoxyphenyl)-4-oxo-3,4-dihydrobenzo[4,5]thieno[2,3-d]pyrimidin-2-yl)-2-methoxyphenoxy)acetic acid]
IC50: 28 µM

From paper PMC3079261 (Tetrahedron letters, 2011)
